Results from ChEMBL document CHEMBL1159261, “New bioactive monotetrahydrofuran Annonaceous acetogenins, annomuricin C and muricatocin C, from the leaves of Annona muricata” (J Nat Prod, 1995).
≈ marks a conversion by molar mass, not a printed value.

Tests used:
[1] = tested on: MCF7; assay: Cytotoxicity against human MCF7 cells after 7 days by MTT assay; format: functional; details: MCF7, 168 h, read-out: ED50 (the source's name)
[2] = Toxicity against brine shrimp; format: organism-based; details: artemia, in vivo; read-out: LD50 (the source's name)
[3] = tested on: HT-29; assay: Cytotoxicity against human HT-29 cells after 7 days by MTT assay; format: functional; details: HT-29, 168 h, read-out: ED50 (the source's name)
[4] = tested on: A549; assay: Cytotoxicity against human A549 cells after 7 days by MTT assay; format: functional; details: A549, 168 h, read-out: ED50 (the source's name)

Row | SMILES | EC50 [1] [µg/mL] | LC50 [2] [µg/mL] | EC50 [3] [µg/mL] | EC50 [4] [µg/mL]
1 | CCCCCCCCCCCC[C@@H](O)[C@H]1CC[C@H]([C@H](O)CCC[C@@H]2OC(C)(C)O[C@@H]2CCCCC[C@@H](O)CC2=C[C@H](C)OC2=O)O1 | 0.00481 (≈ 0.00737 µM) | 0.235 (≈ 0.36 µM) | 1.41 (≈ 2.16 µM) | 0.0698 (≈ 0.107 µM)
2 | CCCCCCCCCCCC[C@@H](O)[C@H]1CC[C@H]([C@H](O)CC[C@@H]2C[C@@H](CCCCC[C@@H](O)CC3=C[C@H](C)OC3=O)OC(C)(C)O2)O1 | 0.00398 (≈ 0.0061 µM) | 0.189 (≈ 0.289 µM) | 0.261 (≈ 0.4 µM) | 0.00376 (≈ 0.00576 µM)
3 | CCCCCCCCCCCC[C@@H](O)[C@H]1CC[C@H]([C@H](O)CCC[C@H](O)[C@@H](O)CCCCC[C@@H](O)CC2=C[C@H](C)OC2=O)O1 [ANNOMURICIN C] | 0.228 (≈ 0.372 µM) | 0.613 (≈ 1 µM) | 1.54 (≈ 2.51 µM) | 0.308 (≈ 0.503 µM)
4 | COc1cccc2c1C(=O)c1c(O)c3c(c(O)c1C2=O)C[C@@](O)(C(=O)CO)C[C@@H]3O[C@H]1C[C@H](N)[C@H](O)[C@H](C)O1 [DOXORUBICIN] | 0.106 (≈ 0.195 µM) |  | 0.0348 (≈ 0.064 µM) | 
5 | CCCCCCCCCCCC[C@@H](O)[C@H]1CC[C@H]([C@H](O)CC[C@@H](O)C[C@H](O)CCCCC[C@@H](O)CC2=C[C@H](C)OC2=O)O1 [MURICATOCIN C] | 0.0645 (≈ 0.105 µM) | 0.604 (≈ 0.985 µM) | 1.48 (≈ 2.41 µM) | 0.0909 (≈ 0.148 µM)
